Key:
[1] = target: T1, c-KIT (Homo sapiens, UniProt P10721); experiment: Inhibition of c-KIT, radiometric filter-binding assay; assay type: biochemical; conditions: 700 μM ATP, pE4Y substrate
T1 construct: 0.02% BSA and 25 nM c-KIT
Method: Compounds are screened for their ability to inhibit c-KIT activity using a radiometric filter-binding assay. This assay monitors the ^33P incorporation into a substrate poly(Glu, Tyr) 4:1 (pE4Y). Reactions are carried out in a solution containing 100 mM HEPES (pH 7.5), 10 mM MgCl2, 25 mM NaCl, 1 mM DTT, 0.01% BSA and 2.5% DMSO. Final substrate concentrations in the assay were 700 μM ATP and 0.5 mg/mL pE4Y (both from Sigma Chemicals, St Louis, Mo.). The final concentration of compounds is generally between 0.01 and 5 μM. Typically, a 12-point titration is conducted by preparing serial dilutions from 10 mM DMSO stock of test compound. Reactions were carried out at room temperature.
Two assay solutions are prepared. Solution 1 contains 100 mM HEPES (pH 7.5), 10 mM MgCl2, 25 mM NaCl, 1 mg/ml pE4Y and 1.4 mM ATP (containing 0.5 μCi of [γ-^33P]ATP for each reaction). Solution 2 contains 100 mM HEPES (pH 7.5), 10 mM MgCl2, 25 mM NaCl, 2 mM DTT, 0.02% BSA and 25 nM c-KIT. The assay is run on a 96 well plate by mixing 33 μL of Solution1 and 1.65 μL of the test compounds. The reaction is initiated with 33 μL of Solution2. After incubation for 20 minutes at room temperature, the reaction was stopped with 50 μL of 10% TCA containing 0.2 mM of ATP. All of the reaction volume is then transferred to a filter plate and washed with 5% TCA by a Harvester9600 from TOMTEC (Hamden, Conn.). The amount of ^33P incorporation into pE4y is analyzed by a Packard TopCount Microplate Scintillation Counter (Meriden, Conn.). The data is fitted using Prism software to get an IC50 or Ki.

[2] = target: GSK-3β (AA 1-420) (Homo sapiens, UniProt P49841); experiment: Inhibition of GSK-3, coupled enzyme system; assay type: biochemical; conditions: 20 μM ATP, 30° C.
Method: Compounds are screened for their ability to inhibit GSK-3β (AA 1-420) activity using a standard coupled enzyme system [Fox et al. Protein Sci. 1998, 7, 2249]. Reactions are carried out in a solution containing 100 mM HEPES (pH 7.5), 10 mM MgCl2, 25 mM NaCl, 300 μM NADH, 1 mM DTT and 1.5% DMSO. Final substrate concentrations in the assay are 20 μM ATP (Sigma Chemicals, St Louis, Mo.) and 300 μM peptide (American Peptide, Sunnyvale, Calif.). Reactions are carried out at 30° C. and 20 nM GSK-3β. Final concentrations of the components of the coupled enzyme system are 2.5 mM phosphoenolpyruvate, 300 μM NADH, 30 μg/ml pyruvate kinase and 10 μg/ml lactate dehydrogenase.
An assay stock buffer solution is prepared containing all of the reagents listed above with the exception of ATP and the test compound of interest. The assay stock buffer solution (175 μl) is incubated in a 96 well plate with 5 μl of the test compound of interest at final concentrations spanning 0.002 μM to 30 μM at 30° C. for 10 min. Typically, a 12 point titration is conducted by preparing serial dilutions (from 10 mM compound stocks) with DMSO of the test compounds in daughter plates. The reaction is initiated by the addition of 20 μl of ATP (final concentration 20 μM). Rates of reaction are obtained using a Molecular Devices Spectramax plate reader (Sunnyvale, Calif.) over 10 min at 30° C. The Ki values are determined from the rate data as a function of inhibitor concentration.

Sequence of GSK-3β (AA 1-420) (P49841 whole entry, the tested form may be a part): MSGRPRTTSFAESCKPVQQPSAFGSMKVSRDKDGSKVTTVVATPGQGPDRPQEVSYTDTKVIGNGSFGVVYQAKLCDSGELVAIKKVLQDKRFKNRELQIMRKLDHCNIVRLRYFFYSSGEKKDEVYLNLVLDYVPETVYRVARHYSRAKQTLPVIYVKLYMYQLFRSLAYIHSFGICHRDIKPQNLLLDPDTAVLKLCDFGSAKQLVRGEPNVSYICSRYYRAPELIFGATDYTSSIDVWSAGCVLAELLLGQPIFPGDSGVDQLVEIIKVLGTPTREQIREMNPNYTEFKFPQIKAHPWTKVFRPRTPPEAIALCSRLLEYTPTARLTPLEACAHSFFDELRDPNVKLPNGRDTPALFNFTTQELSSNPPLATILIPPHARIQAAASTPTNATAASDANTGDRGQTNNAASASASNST
T1 sequence (P10721 26-976): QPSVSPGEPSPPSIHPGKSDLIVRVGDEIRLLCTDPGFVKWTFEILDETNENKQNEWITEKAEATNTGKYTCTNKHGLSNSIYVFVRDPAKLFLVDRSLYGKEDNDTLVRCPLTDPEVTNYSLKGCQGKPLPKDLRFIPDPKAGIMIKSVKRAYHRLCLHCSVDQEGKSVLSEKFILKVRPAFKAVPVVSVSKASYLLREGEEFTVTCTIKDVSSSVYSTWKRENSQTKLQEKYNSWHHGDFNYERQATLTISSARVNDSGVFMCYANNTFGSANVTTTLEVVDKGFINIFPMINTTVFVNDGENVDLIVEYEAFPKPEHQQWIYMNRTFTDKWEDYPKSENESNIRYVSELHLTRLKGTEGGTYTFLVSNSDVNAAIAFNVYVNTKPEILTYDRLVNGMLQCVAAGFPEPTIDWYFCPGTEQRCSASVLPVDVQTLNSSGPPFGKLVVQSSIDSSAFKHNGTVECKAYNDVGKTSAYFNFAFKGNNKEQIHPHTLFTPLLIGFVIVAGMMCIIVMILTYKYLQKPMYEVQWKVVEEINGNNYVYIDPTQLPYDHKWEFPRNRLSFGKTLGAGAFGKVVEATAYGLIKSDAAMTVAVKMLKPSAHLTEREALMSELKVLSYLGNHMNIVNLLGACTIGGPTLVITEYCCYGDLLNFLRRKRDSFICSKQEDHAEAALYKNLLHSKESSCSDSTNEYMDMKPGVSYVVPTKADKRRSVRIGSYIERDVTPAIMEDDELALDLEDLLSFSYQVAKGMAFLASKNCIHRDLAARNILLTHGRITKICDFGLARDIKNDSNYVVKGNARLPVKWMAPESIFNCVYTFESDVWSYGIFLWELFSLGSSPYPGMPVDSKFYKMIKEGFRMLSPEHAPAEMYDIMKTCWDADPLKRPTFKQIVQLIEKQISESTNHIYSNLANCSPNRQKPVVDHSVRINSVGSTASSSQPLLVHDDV

SMILES | Ki [1] [nM] | Ki [2] [nM]
c1ccc(-n2cnc(Nc3ccc4c(c3)OCCO4)n2)cc1 [Compound I-44] | < 50 | > 1000
CCOc1ccc(Nc2ncn(-c3ccccc3)n2)cc1 [Compound I-47] | < 50 | > 1000
c1ccc(Nc2ncn(-c3ccnc(N4CCCCC4)c3)n2)cc1 [Compound I-49, phenyl-[1-(3,4,5,6-tetrahydro-2H-[1,2′]bipyridinyl-4′-yl)-1H-[1,2,4]triazol-3-yl]-amine] |  | 500 to 1000
c1ccc(Nc2ncn(-c3ccnc(NC4CCCCC4)c3)n2)cc1 [Compound I-50] |  | 500 to 1000
CN(CCO)c1cc(-n2cnc(Nc3ccccc3)n2)ccn1 [Compound I-51] |  | < 500
c1ccc(Nc2ncn(-c3ccnc(N4CCCCCCC4)c3)n2)cc1 [Compound I-52] |  | 500 to 1000
CN(C)CCCN(C)c1cc(-n2cnc(Nc3ccccc3)n2)ccn1 [Compound I-53] |  | > 1000
CCN(CCO)c1cc(-n2cnc(Nc3ccccc3)n2)ccn1 [Compound I-54] |  | < 500
CN(Cc1ccccc1)c1cc(-n2cnc(Nc3ccccc3)n2)ccn1 [Compound I-55] | < 50 | > 1000
CC1CCCN1c1cc(-n2cnc(Nc3ccccc3)n2)ccn1 (centres unmarked) [Compound I-56] | < 50 | < 500
CN(Cc1cccnc1)c1cc(-n2cnc(Nc3ccccc3)n2)ccn1 [Compound I-57] |  | < 500
CCCN(CCO)c1cc(-n2cnc(Nc3ccccc3)n2)ccn1 [Compound I-58] | < 50 | < 500
COCCN(C)c1cc(-n2cnc(Nc3ccccc3)n2)ccn1 [Compound I-59, (2-methoxy-ethyl)-methyl-[4-(3-phenylamino-[1,2,4]triazol-1-yl)-pyridin-2-yl]-amine] |  | < 500
CCN(CC)CCNc1cc(-n2cnc(Nc3ccccc3)n2)ccn1 [Compound I-60] |  | > 1000
CN1C(C)(C)CC(Nc2cc(-n3cnc(Nc4ccccc4)n3)ccn2)CC1(C)C [Compound I-61] |  | > 1000
CC(C)CCN(C)c1cc(-n2cnc(Nc3ccccc3)n2)ccn1 [Compound I-62, methyl-(3-methyl-butyl)-[4-(3-phenylamino-[1,2,4]triazol-1-yl)-pyridin-2-yl]-amine] |  | < 500
O=c1[nH]c2ccccc2n1C1CCN(c2cc(-n3cnc(Nc4ccccc4)n3)ccn2)CC1 [Compound I-63] |  | > 1000
O=C(C1CCCO1)N1CCN(c2cc(-n3cnc(Nc4ccccc4)n3)ccn2)CC1 (centres unmarked) [Compound I-64] |  | > 1000
CCCC(=O)N1CCCN(c2cc(-n3cnc(Nc4ccccc4)n3)ccn2)CC1 [Compound I-68] |  | > 1000
CC(C)C(=O)N1CCCN(c2cc(-n3cnc(Nc4ccccc4)n3)ccn2)CC1 [Compound I-69] |  | > 1000
CC(C)CC(=O)N1CCCN(c2cc(-n3cnc(Nc4ccccc4)n3)ccn2)CC1 [Compound I-70] |  | > 1000

SMILES | Ki [1] [nM] | Ki [2] [nM]
CCOC(=O)c1ccc(Nc2ncn(-c3ccnc(N4CCCN(C(C)=O)CC4)c3)n2)cc1 [Compound I-76] |  | > 1000
CC(=O)N1[C@H](C)CN(c2cc(-n3cnc(Nc4ccc(NC(=O)c5cccs5)cc4)n3)ccn2)C[C@@H]1C [Compound I-80] | < 50 | > 1000
CC(=O)N1[C@H](C)CN(c2cc(-n3cnc(Nc4ccc(NC(=O)c5ccco5)cc4)n3)ccn2)C[C@@H]1C [Compound I-81, Furan-2-carboxylic acid (4-{1-[2-(4-acetyl-3,5-dimethyl-piperazin-1-yl)-pyridin-4-yl]-1H-[1,2,4]triazol-3-ylamino}-phenyl)-amide] | 50 to 500 | > 1000
CC(=O)N1[C@H](C)CN(c2cc(-n3cnc(Nc4ccc(NC(=O)OCC(C)C)cc4)n3)ccn2)C[C@@H]1C [Compound I-90] | 50 to 500 | > 1000
CC(=O)N1[C@H](C)CN(c2cc(-n3cnc(Nc4ccc(NC(=O)OCC(C)(C)C)cc4)n3)ccn2)C[C@@H]1C [Compound I-91] | 50 to 500 | > 1000
CC(=O)N1[C@H](C)CN(c2cc(-n3cnc(Nc4ccc(N5CCN(S(=O)(=O)c6ccc(C)cc6)CC5)cc4)n3)ccn2)C[C@@H]1C [Compound I-92] | 50 to 500 | > 1000
O=C(Nc1cc(-n2cnc(Nc3ccccc3)n2)ccn1)C1CCCCC1 [Compound I-93] |  | < 500
O=C(CC1CCCC1)Nc1cc(-n2cnc(Nc3ccccc3)n2)ccn1 [Compound I-94, 2-Cyclopentyl-N-[4-(3-phenylamino-[1,2,4]triazol-1-yl)-pyridin-2-yl]-acetamide] |  | < 500
O=C(CCc1ccccc1)Nc1cc(-n2cnc(Nc3ccccc3)n2)ccn1 [Compound I-95] |  | < 500
O=C(Cc1ccccc1)Nc1cc(-n2cnc(Nc3ccccc3)n2)ccn1 [Compound I-96] |  | < 500
CC(=O)N1[C@H](C)CN(c2cc(-n3cnc(Nc4ccc(N5CCN(C(=O)OC(C)(C)C)CC5)cc4)n3)ccn2)C[C@@H]1C [Compound I-97, 4-(4-{1-[2-(4-Acetyl-3,5-dimethyl-piperazin-1-yl)-pyridin-4-yl]-1H-[1,2,4]triazol-3-ylamino}-phenyl)-piperazine-1-carboxylic acid tert-butyl ester] | 50 to 500 | > 1000
CCNC(=O)Nc1ccc(Nc2ncn(-c3ccnc(N4C[C@@H](C)N(C(C)=O)[C@@H](C)C4)c3)n2)cc1 [Compound I-98, 1-(4-{1-[2-(4-Acetyl-3,5-dimethyl-piperazin-1-yl)-pyridin-4-yl]-1H-[1,2,4]triazol-3-ylamino}-phenyl)-3-ethyl-urea] | 50 to 500 | > 1000
CCCNC(=O)Nc1ccc(Nc2ncn(-c3ccnc(N4C[C@@H](C)N(C(C)=O)[C@@H](C)C4)c3)n2)cc1 [Compound I-99] | 50 to 500 | > 1000
CC(=O)N1[C@H](C)CN(c2cc(-n3cnc(Nc4ccc(NC(=O)NC(C)C)cc4)n3)ccn2)C[C@@H]1C [Compound I-100] | 50 to 500 | > 1000
CC(=O)N1[C@H](C)CN(c2cc(-n3cnc(Nc4ccc(NC(=O)NC(C)(C)C)cc4)n3)ccn2)C[C@@H]1C [Compound I-101] | 50 to 500 | > 1000
CC(C)(C)CC(=O)Nc1cc(-n2cnc(Nc3ccccc3)n2)ccn1 [Compound I-102] |  | > 1000
c1ccc(-n2cnc(Nc3ccc(N4CCOCC4)cc3)n2)cc1 [Compound I-106] |  | > 1000
c1ccc(-n2cnc(Nc3ccnc(NCCN4CCOCC4)c3)n2)cc1 [Compound I-107] |  | > 1000
c1ccc(-n2cnc(Nc3ccc(N4CCOCC4)nc3)n2)cc1 [Compound I-134] |  | > 1000
CN1CCN(c2ccc(Nc3ncn(-c4ccccc4)n3)cn2)CC1 [Compound I-135] |  | > 1000

— patent US7598245B2 (Vertex Pharmaceuticals Incorporated, priority 2003, dated 2009)
